Earlier results as cited in PMC10323144, “Garbage in, garbage out: how reliable training data improved a virtual screening approach against SARS-CoV-2 MPro” (Frontiers in Pharmacology, 2023).
Peptide text beside a SMILES is read from it. * marks the point of attachment. Cbz = O=C(OCc1ccccc1)*

Test system: MPro
Conditions: compiled from peer-reviewed sources (287 compounds) ref the 18 original articles; cited from earlier work

| SMILES | Class (MPro activity class) |
| --- | --- |
| COC(=O)NC(C(=O)NC(Cc1ccccc1)C(O)CN(Cc1ccc(-c2ccccn2)cc1)NC(=O)C(NC(=O)OC)C(C)(C)C)C(C)(C)C (stereo not drawn) [Atanazavir] | 0 (compounds with IC50 > 20 μM, percentage inhibition <80% at 20 µM or 50 μM, or percentage enzyme inhibition <50% at 10 µM were labelled as INACTIVE) |
| CCCC[C@H](NC(=O)[C@@H]1[C@@H]2[C@H](CN1C(=O)[C@@H](NC(=O)NC1(CS(=O)(=O)C(C)(C)C)CCCCC1)C(C)(C)C)C2(C)C)C(=O)C(=O)NC1CC1 [Narlaprevir] | 1 (Compounds with IC50 < 10 µM or with a percentage of enzyme inhibition >50% at 10 µM were labelled as ACTIVE) |
| CC1(C)CN(C(=O)c2ccc(-c3cccc4nc(NC(=O)C5CC5)nn34)cc2)C1 [SOLCITINIB] | 0 (compounds with IC50 > 20 μM, percentage inhibition <80% at 20 µM or 50 μM, or percentage enzyme inhibition <50% at 10 µM were labelled as INACTIVE) |
| Cc1cc(Cn2nnc3c(-c4ccco4)nc(N)nc32)ccc1N [VIPADENANT] | 0 (compounds with IC50 > 20 μM, percentage inhibition <80% at 20 µM or 50 μM, or percentage enzyme inhibition <50% at 10 µM were labelled as INACTIVE) |
| CC1C=CC=CC=CC=CC=CC=CC=CC(OC2OC(C)C(O)C(N)C2O)CC(O)C(C(=O)O)C(O)CC(=O)CC(O)CC(O)CC(O)CC(=O)CCCC(=O)CC(=O)OC1C(C)CC(C)C(O)CC(=O)c1ccc(N)cc1 (stereo not drawn) [Candicidin] | 0 (compounds with IC50 > 20 μM, percentage inhibition <80% at 20 µM or 50 μM, or percentage enzyme inhibition <50% at 10 µM were labelled as INACTIVE) |
| C[C@]12CC[C@H]3[C@@H](CC[C@@]45O[C@@H]4C(O)=C(C#N)C[C@]35C)[C@@H]1CC[C@@H]2O [Trilostane] | 0 (compounds with IC50 > 20 μM, percentage inhibition <80% at 20 µM or 50 μM, or percentage enzyme inhibition <50% at 10 µM were labelled as INACTIVE) |
| CC(C)(C)[C@@H]1NC(=O)O[C@@H]2CCC[C@H]2OC/C=C/C(F)(F)c2nc3ccccc3nc2O[C@@H]2C[C@@H](C(=O)N[C@]3(C(=O)NS(=O)(=O)C4(C)CC4)C[C@H]3C(F)F)N(C2)C1=O [Glecaprevir] | 0 (compounds with IC50 > 20 μM, percentage inhibition <80% at 20 µM or 50 μM, or percentage enzyme inhibition <50% at 10 µM were labelled as INACTIVE) |
| CCCC(NC(=O)C(CC(C)C)NC(=O)OCc1ccccc1)C(=O)C(=O)NCc1ccccn1 (stereo not drawn) [Calpain inhibitor XII] | 1 (Compounds with IC50 < 10 µM or with a percentage of enzyme inhibition >50% at 10 µM were labelled as ACTIVE) |
| COc1cc(Cl)cc(OC(=O)Nc2cccnc2)c1 [AGN-NEW-891393a6-1] | 1 (Compounds with IC50 < 10 µM or with a percentage of enzyme inhibition >50% at 10 µM were labelled as ACTIVE) |
| Cc1ccncc1NC(=O)Cc1cccc(C#N)c1 [TRY-UNI-714a760b-20] | 0 (compounds with IC50 > 20 μM, percentage inhibition <80% at 20 µM or 50 μM, or percentage enzyme inhibition <50% at 10 µM were labelled as INACTIVE) |
| O=C(CNc1c(-c2ccccc2)nc2ccccn12)NN=Cc1cccc2ccccc12 [LASSBio-1615 (11)] | 0 (compounds with IC50 > 20 μM, percentage inhibition <80% at 20 µM or 50 μM, or percentage enzyme inhibition <50% at 10 µM were labelled as INACTIVE) |
| O=C(O)[C@H]1C2CCC(CC2)[C@@H]1Nc1nc(-c2c[nH]c3ncc(F)cc23)ncc1F [Pimodivir] | 0 (compounds with IC50 > 20 μM, percentage inhibition <80% at 20 µM or 50 μM, or percentage enzyme inhibition <50% at 10 µM were labelled as INACTIVE) |
| COc1cc(CN2CCN(C(=O)CCl)CC2)c2ccccc2c1 [DAR-DIA-fb20be43-7] | 1 (Compounds with IC50 < 10 µM or with a percentage of enzyme inhibition >50% at 10 µM were labelled as ACTIVE) |
| COc1cccc(Nc2c(C(N)=O)cnc3c(C)cc(S(=O)(=O)c4cccc(C(=O)N(C)C)c4)cc23)c1 [GSK-256066] | 0 (compounds with IC50 > 20 μM, percentage inhibition <80% at 20 µM or 50 μM, or percentage enzyme inhibition <50% at 10 µM were labelled as INACTIVE) |
| N#Cc1cc(CN2CCN(C(=O)CCl)CC2)c2ccccc2c1 [DAR-DIA-fb20be43-6] | 1 (Compounds with IC50 < 10 µM or with a percentage of enzyme inhibition >50% at 10 µM were labelled as ACTIVE) |
| CC(C)(F)C[C@H](N[C@@H](c1ccc(-c2ccc(S(C)(=O)=O)cc2)cc1)C(F)(F)F)C(=O)NC1(C#N)CC1 [Odanacatib] | 0 (compounds with IC50 > 20 μM, percentage inhibition <80% at 20 µM or 50 μM, or percentage enzyme inhibition <50% at 10 µM were labelled as INACTIVE) |
| Nc1nc(NC2CC2)c2ncn([C@H]3C=C[C@@H](CO)C3)c2n1 [Abacavir] | 0 (compounds with IC50 > 20 μM, percentage inhibition <80% at 20 µM or 50 μM, or percentage enzyme inhibition <50% at 10 µM were labelled as INACTIVE) |
| COc1c(OC2OC(C(=O)O)C(O)C(O)C2O)cc2oc(-c3ccccc3)cc(=O)c2c1O [Oroxylin A-7-O-β-D-glucuronide] | 0 (compounds with IC50 > 20 μM, percentage inhibition <80% at 20 µM or 50 μM, or percentage enzyme inhibition <50% at 10 µM were labelled as INACTIVE) |
| CC#CCn1c(N2CCCC(N)C2)nc2c1c(=O)n(Cc1nc(C)c3ccccc3n1)c(=O)n2C (stereo not drawn) [Linafliptin] | 0 (compounds with IC50 > 20 μM, percentage inhibition <80% at 20 µM or 50 μM, or percentage enzyme inhibition <50% at 10 µM were labelled as INACTIVE) |
| CCOC(=O)c1ccc(OC(=O)CCCCCNC(=N)N)cc1 [Gabexate] | 0 (compounds with IC50 > 20 μM, percentage inhibition <80% at 20 µM or 50 μM, or percentage enzyme inhibition <50% at 10 µM were labelled as INACTIVE) |

| SMILES | Class (MPro activity class) |
| --- | --- |
| Cc1cc(C(=O)CN2CCCC2)c(C)n1-c1ccc(F)cc1 [IU1 S7134] | 0 (compounds with IC50 > 20 μM, percentage inhibition <80% at 20 µM or 50 μM, or percentage enzyme inhibition <50% at 10 µM were labelled as INACTIVE) |
| CNC(=O)[C@H](Cc1ccccc1)NC(=O)[C@H](CC(C)C)[C@H](CSc1cccs1)C(=O)NO [Batimastat] | 0 (compounds with IC50 > 20 μM, percentage inhibition <80% at 20 µM or 50 μM, or percentage enzyme inhibition <50% at 10 µM were labelled as INACTIVE) |
| COc1cc(Cl)cc(-c2cc(-c3c[nH]c(=O)[nH]c3=O)cn(-c3cccnc3)c2=O)c1 [compound 10] | 1 (Compounds with IC50 < 10 µM or with a percentage of enzyme inhibition >50% at 10 µM were labelled as ACTIVE) |
| CCN(CCO)CCCC(C)Nc1ccnc2cc(Cl)ccc12 (stereo not drawn) [Hydroxychloroquine] | 0 (compounds with IC50 > 20 μM, percentage inhibition <80% at 20 µM or 50 μM, or percentage enzyme inhibition <50% at 10 µM were labelled as INACTIVE) |
| O=C(C=Cc1ccc(O)c(O)c1)OC1C(O)CC(O)(C(=O)O)CC1O (stereo not drawn) [Cryptochlorogenic acid] | 0 (compounds with IC50 > 20 μM, percentage inhibition <80% at 20 µM or 50 μM, or percentage enzyme inhibition <50% at 10 µM were labelled as INACTIVE) |
| CCOC(=O)C1=C[C@@H](OC(CC)CC)[C@H](NC(C)=O)[C@@H](N)C1 [Oseltamivir] | 0 (compounds with IC50 > 20 μM, percentage inhibition <80% at 20 µM or 50 μM, or percentage enzyme inhibition <50% at 10 µM were labelled as INACTIVE) |
| COc1ccc(C2CC(c3ccccc3)=NN2C(=O)CCl)cc1OC (stereo not drawn) [MED-COV-4280ac29-30] | 1 (Compounds with IC50 < 10 µM or with a percentage of enzyme inhibition >50% at 10 µM were labelled as ACTIVE) |
| O=c1c(O)c(-c2ccc(O)c(O)c2)oc2cc(O)c(O)c(O)c12 [Quercetagetin] | 1 (Compounds with IC50 < 10 µM or with a percentage of enzyme inhibition >50% at 10 µM were labelled as ACTIVE) |
| COc1cnc(-n2cnc(C)n2)c2[nH]cc(C(=O)C(=O)N3CCN(C(=O)c4ccccc4)CC3)c12 [Temsavir] | 0 (compounds with IC50 > 20 μM, percentage inhibition <80% at 20 µM or 50 μM, or percentage enzyme inhibition <50% at 10 µM were labelled as INACTIVE) |
| C=CC(=O)N(c1ccc(C(C)(C)C)cc1)C(C(=O)NCCc1cccc(F)c1)c1cccnc1 (stereo not drawn) [LON-WEI-adc59df6-47] | 1 (Compounds with IC50 < 10 µM or with a percentage of enzyme inhibition >50% at 10 µM were labelled as ACTIVE) |
| CN(C)c1ccc(N(Cc2ccsc2)C(=O)Cn2nnc3ccccc32)cc1 [ALP-POS-d2866bdf-1] | 1 (Compounds with IC50 < 10 µM or with a percentage of enzyme inhibition >50% at 10 µM were labelled as ACTIVE) |
| CC1CN(Cc2cccc(Cl)c2)CCN1C(=O)CCl (stereo not drawn) [MED-COV-4280ac29-13] | 1 (Compounds with IC50 < 10 µM or with a percentage of enzyme inhibition >50% at 10 µM were labelled as ACTIVE) |
| CCCC(NC(=O)C(CC(C)C)NC(=O)OCc1ccccc1)C(=O)C(=O)NCc1ccccc1 (stereo not drawn) [UAWJ257] | 0 (compounds with IC50 > 20 μM, percentage inhibition <80% at 20 µM or 50 μM, or percentage enzyme inhibition <50% at 10 µM were labelled as INACTIVE) |
| CC(C)C[C@@H](C=O)NC(=O)[C@H](CC(C)C)NC(=O)[C@H](CC(C)C)NC(=O)OCc1ccccc1 [MG-132] (Cbz-Leu-Leu-Leu-aldehyde) | 1 (Compounds with IC50 < 10 µM or with a percentage of enzyme inhibition >50% at 10 µM were labelled as ACTIVE) |
| CC(C)(C(=O)NCC(F)(F)C(F)(F)F)C(=O)N[C@@H]1C(=O)Nc2ccccc2-c2ccccc21 [RO4929097] | 0 (compounds with IC50 > 20 μM, percentage inhibition <80% at 20 µM or 50 μM, or percentage enzyme inhibition <50% at 10 µM were labelled as INACTIVE) |
| O=C(CCl)N1CCN(Cc2cccc(Cl)c2)CC1 [MED-COV-4280ac29-15] | 1 (Compounds with IC50 < 10 µM or with a percentage of enzyme inhibition >50% at 10 µM were labelled as ACTIVE) |
| O=C(NN=Cc1c[nH]cn1)C1CCCCC1 [LASSBio-1600 (15)] | 0 (compounds with IC50 > 20 μM, percentage inhibition <80% at 20 µM or 50 μM, or percentage enzyme inhibition <50% at 10 µM were labelled as INACTIVE) |
| O=C(CCl)N1CCN(Cc2cc(Cl)cc(Cl)c2)CC1 [PAU-UNI-8cdd41c7-1] | 1 (Compounds with IC50 < 10 µM or with a percentage of enzyme inhibition >50% at 10 µM were labelled as ACTIVE) |
| O=C(O)[C@H]1O[C@@H](Oc2cc3oc(-c4ccc(O)cc4)cc(=O)c3c(O)c2O)[C@H](O)[C@@H](O)[C@@H]1O [Scutellarin] | 0 (compounds with IC50 > 20 μM, percentage inhibition <80% at 20 µM or 50 μM, or percentage enzyme inhibition <50% at 10 µM were labelled as INACTIVE) |
